According to patent US8466153B2, “Piperidinylamino-pyridazines and their use as fast dissociating dopamine 2 receptor antagonists” (Janssen Pharmaceutica N.V., priority 2006, dated 2013):
Read-outs that look alike come from different tables or passages of the source.

What was measured:
[1] = target: T1, human Dopamine D2L receptor (Homo sapiens, UniProt P14416); experiment: In vitro binding affinity for human D2L receptor ([3H]spiperone competition); conditions: membranes of human D2L receptor-transfected CHO cells, 30 min, 37° C.
T1 construct: expressed in transfected cells; host or cells: CHO cells
T1 sequence (P14416 whole entry): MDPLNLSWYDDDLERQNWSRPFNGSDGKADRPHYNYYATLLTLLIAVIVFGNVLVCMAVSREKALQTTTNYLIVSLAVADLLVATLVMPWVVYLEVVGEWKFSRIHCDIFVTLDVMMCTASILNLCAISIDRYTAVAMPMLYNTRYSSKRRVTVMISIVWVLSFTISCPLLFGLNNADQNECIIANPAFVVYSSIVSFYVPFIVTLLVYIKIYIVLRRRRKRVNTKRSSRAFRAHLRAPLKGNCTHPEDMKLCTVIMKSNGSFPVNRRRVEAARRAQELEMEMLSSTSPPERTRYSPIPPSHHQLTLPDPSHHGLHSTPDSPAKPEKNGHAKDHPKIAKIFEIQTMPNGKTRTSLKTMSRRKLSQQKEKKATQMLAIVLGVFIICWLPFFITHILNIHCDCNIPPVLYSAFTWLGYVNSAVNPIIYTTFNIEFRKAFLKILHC
Source text: In order to find antipsychotic compounds active against positive symptoms and having an improved safety profile (low EPS incidence and no metabolic disorders), we have screened for compounds selectively interacting with the dopamine D2 receptor and dissociating fast from this receptor. Compounds were first screened for their D2 affinity in a binding assay using [^3H]spiperone and human D2L receptor cell membranes.
Frozen membranes of human Dopamine D2L receptor-transfected CHO cells were thawed, briefly homogenised using an Ultra-Turrax T25 homogeniser and diluted in Tris-HCl assay buffer containing NaCl, CaCl2, MgCl2, KCl (50, 120, 2, 1, and 5 mM respectively, adjusted to pH 7.7 with HCl) to an appropriate protein concentration optimised for specific and non-specific binding. Radioligand [^3H]Spiperone (NEN, specific activity ˜70 Ci/mmol) was diluted in assay buffer at a concentration of 2 nmol/L. Prepared radioligand (50 μl), along with 50 μl of either the 10% DMSO control, Butaclamol (10^−6 mol/l final concentration), or compound of interest, was then incubated (30 min, 37° C.) with 400 μl of the prepared membrane solution. Membrane-bound activity was filtered through a Packard Filtermate harvester onto GF/B Unifilterplates and washed with ice-cold Tris-HCl buffer (50 mM; pH 7.7; 6×0.5 ml). Filters were allowed to dry before adding scintillation fluid and counting in a Topcount scintillation counter. Percentage specific bound and competition binding curves were calculated using S-Plus software (Insightful).

human D2L receptor = target: T2, human D2L receptor (Homo sapiens, UniProt P14416); experiment: Fast dissociation (indirect [3H]spiperone filter assay); format: binding; conditions: compound at 4 times its IC50 pre-incubated 1 h at 25° C.; [3H]spiperone 1 nM on filter for 5 minutes
T2 construct: expressed in transfected cells
T2 sequence (P14416 whole entry): as above
Experimental: Compounds were first screened for their D2 affinity in a binding assay using [^3H]spiperone and human D2L receptor cell membranes.
Immediately after, the vacuum was released. 0.4 ml of pre-warmed buffer (25° C.) containing 1 nM [^3H]spiperone was added on the filter for 5 minutes. The incubation was stopped by initiating the vacuum and immediate rinsing with 2×5 ml of ice-cold buffer. The filter-bound radioactivity was measured in a liquid scintillation spectrometer. The principle of the assay is based on the assumption that the faster a compound dissociates from the D2 receptor, the faster [^3H]spiperone binds to the D2 receptor.

[2] = test system: Apomorphine-induced agitation, stereotypy in rats; experiment: Inhibition of the apomorphine induced agitation test in rats; format: in vivo; conditions: Rattus norvegicus, 0.5 h, apomorphine 1.0 mg/kg i.v. at 30 min, male Wiga Wistar rats
Experimental: Male Wiga Wistar rats (180-280 g) were administered test compound (sc: subcutaneously; po: orally; n=3 per dose; dose=0.16, 0.63 and 2.5 mg/kg) or solvent and then challenged with apomorphine (1.0 mg/kg, i.v.) at 30 min. The effects of the test compound on the behavioral changes were evaluated according to all-or-none criteria based on the distribution of results in a large series of control data obtained in solvent-pretreated rats.
Apomorphine (1.0 mg/kg, i.v.)-induced agitation, stereotypy (compulsive sniffing, licking, chewing), was scored every 5 min over the first hour after injection of apomorphine. The score system was: (3) pronounced, (2) moderate, (1) slight, and (0) absent. […] The table below gives the lowest active dose at which 3 out of 3 rats tested met one of the criteria for drug-induced inhibition of agitation.

[3] = test system: panel of more than 50 common G-protein coupled receptors (CEREP); experiment: Screen in a panel of more than 50 common G-protein coupled receptors (CEREP); format: binding; conditions: panel of more than 50 GPCRs
Source text: Selected compounds E15, E16, E17 and E18 were further screened in a panel of more than 50 common G-protein coupled receptors (CEREP) and found to have a clean profile, that is to have low affinity for the tested receptors.

[4] = po, orally, read-out: po Dose: lowest active dose at which 3 out of 3 rats met a criterion for inhibition of agitation
[5] = sc, subcutaneously, read-out: sc Dose: lowest active dose at which 3 out of 3 rats met a criterion for inhibition of agitation

| SMILES | IC50 [1] [µM] | % Dissociation (human D2L receptor) [%] | affinity profile for the tested receptors [3] | melting point [°C] | minimal effective dose [2, 4] [mg/kg] | minimal effective dose [2, 5] [mg/kg] |
| --- | --- | --- | --- | --- | --- | --- |
| N#Cc1ccc(NC2CCN(Cc3cc(F)cc(F)c3)CC2)nn1 [Example E15, 6-[1-(3,5-Difluoro-benzyl)-piperidin-4-ylamino]-pyridazine-3-carbonitrile] | 6.61 | 93.50 | low affinity | 187.9 | 1.25 | 0.63 |
| N#Cc1ccc(NC2CCN(Cc3ccc(C(F)(F)F)cc3)CC2)nn1 [Example E7, 6-[1-(4-Trifluoromethyl-benzyl)-piperidin-4-ylamino]-pyridazine-3-carbonitrile] | > 10 | 93.50 |  | 243.1 | 2.5 | 0.63 |
| Cc1ccc(CN2CCC(Nc3ccc(C#N)nn3)CC2)cc1C(F)(F)F [Example E10, 6-[1-(4-Methyl-3-trifluoromethyl-benzyl)-piperidin-4-ylamino]-pyridazine-3-carbonitrile] | 6.46 |  |  | 187.3 |  | > 2.5 |
| N#Cc1ccc(NC2CCN(Cc3ccc(OC(F)(F)F)c(Cl)c3)CC2)nn1 [Example E14, 6-[1-(3-Chloro-4-trifluoromethoxy-benzyl)-piperidin-4-ylamino]-pyridazine-3-carbonitrile] | > 10 |  |  |  |  |  |
| N#Cc1ccc(NC2CCN(Cc3cccc(F)c3)CC2)nn1 [Example E5, 6-[1-(3-Fluoro-benzyl)-piperidin-4-ylamino]-pyridazine-3-carbonitrile] | 6.03 |  |  | 190.3 |  | 2.5 |
| N#Cc1ccc(NC2CCN(Cc3cc(C(F)(F)F)cc(C(F)(F)F)c3)CC2)nn1 [Example E11, 6-[1-(3,5-Bis-trifluoromethyl-benzyl)-piperidin-4-ylamino]-pyridazine-3-carbonitrile] | > 10 |  |  | 125 |  |  |
| Cc1cc(NC2CCN(Cc3cc(F)cc(F)c3)CC2)nnc1C#N [Example E20, 6-[1-(3,5-Difluoro-benzyl)-piperidin-4-ylamino]-4-methyl-pyridazine-3-carbonitrile] | 6.17 |  |  |  |  | 2.5 |
| N#Cc1ccc(NC2CCN(Cc3ccc(F)c(F)c3)CC2)nn1 [Example E1, 6-[1-(3,4-Difluoro-benzyl)-piperidin-4-ylamino]-pyridazine-3-carbonitrile] | 4.07 |  |  | 189.86 |  | 2.5 |
| N#Cc1ccc(NC2CCN(Cc3cccc(Cl)c3)CC2)nn1 [Example E13, 6-[1-(3-Chloro-benzyl)-piperidin-4-ylamino]-pyridazine-3-carbonitrile] | 3.24 |  |  | 151 |  | 2.5 |
| N#Cc1ccc(NC2CCN(Cc3cc(F)c(F)c(F)c3)CC2)nn1 [Example E18, 6-[1-(3,4,5-Trifluoro-benzyl)-piperidin-4-ylamino]-pyridazine-3-carbonitrile] | 5.75 | 95 | low affinity | 185 | 1.25 | 0.63 |
| N#Cc1ccc(NC2CCN(Cc3ccc(C(F)(F)F)c(F)c3)CC2)nn1 [Example E8, 6-[1-(3-Fluoro-4-trifluoromethyl-benzyl)-piperidin-4-ylamino]-pyridazine-3-carbonitrile] | 7.59 | 89.50 |  | 178.6 | 2.5 | 2.5 |
| N#Cc1ccc(NC2CCN(Cc3ccc(F)c(C(F)(F)F)c3)CC2)nn1 [Example E9, 6-[1-(4-Fluoro-3-trifluoromethyl-benzyl)-piperidin-4-ylamino]-pyridazine-3-carbonitrile] | 6.76 |  |  | 183.1 |  | 2.5 |
| N#Cc1ccc(NC2CCN(Cc3cc(C(F)(F)F)ccc3F)CC2)nn1 [Example E12, 6-[1-(2-Fluoro-5-trifluoromethyl-benzyl)-piperidin-4-ylamino]-pyridazine-3-carbonitrile] | 6.31 |  |  | 142.5 |  | > 2.5 |
| N#Cc1ccc(NC2CCN(Cc3ccc(F)cc3)CC2)nn1 [Example E2, 6-[1-(4-Fluoro-benzyl)-piperidin-4-ylamino]-pyridazine-3-carbonitrile] | 3.24 |  |  | 187.44 | 0.63 | 0.63 |

Stronger by IC50 [1], values ahead:

| IC50 [1] [µM] | % Dissociation (human D2L receptor) [%] | affinity profile for the tested receptors [3] | melting point [°C] | SMILES | minimal effective dose [2, 4] [mg/kg] | minimal effective dose [2, 5] [mg/kg] |
| --- | --- | --- | --- | --- | --- | --- |
| 3.02 | 73 | low affinity | 151.4 | N#Cc1ccc(NC2CCN(Cc3cc(F)cc(C(F)(F)F)c3)CC2)nn1 [Example E17, 6-[1-(3-Fluoro-5-trifluoromethyl-benzyl)-piperidin-4-ylamino]-pyridazine-3-carbonitrile] | 1.25 | 0.63 |
| 2.95 |  |  |  | N#Cc1ccc(NC2CCN(Cc3ccccc3)CC2)nn1 [Example D2, 6-(1-Benzyl-piperidin-4-ylamino)-pyridazin-3-carbonitrile] |  | 2.5 |
| 1.82 | 83.66 |  |  | Cc1c(C#N)nnc(NC2CCN(Cc3cc(F)cc(F)c3)CC2)c1C [Example E19, 6-[1-(3,5-Difluoro-benzyl)-piperidin-4-ylamino]-4,5-dimethyl-pyridazine-3-carbonitrile] | 2.5 | 0.63 |
| 1.41 | 79.50 | low affinity | 170.3 | N#Cc1ccc(NC2CCN(Cc3cccc(C(F)(F)F)c3)CC2)nn1 [Example E16, 6-[1-(3-Trifluoromethyl-benzyl)-piperidin-4-ylamino]-pyridazine-3-carbonitrile] | 0.63 | 0.63 |
| 1.05 | 87 |  | 209.77 | N#Cc1ccc(NC2CCN(Cc3ccc(Cl)cc3)CC2)nn1 [Example E3, 6-[1-(4-Chloro-benzyl)-piperidin-4-ylamino]-pyridazine-3-carbonitrile] |  | 0.63 |
| 0.955 | 84 |  | 191.62 | Cc1ccc(CN2CCC(Nc3ccc(C#N)nn3)CC2)cc1 [Example E6, 6-[1-(4-Methyl-benzyl)-piperidin-4-ylamino]-pyridazine-3-carbonitrile] |  | 2.5 |
| 0.407 | 82 |  | 171.84 | Cc1ccc(CN2CCC(Nc3ccc(C#N)nn3)CC2)cc1F [Example E4, 6-[1-(3-Fluoro-4-methyl-benzyl)-piperidin-4-ylamino]-pyridazine-3-carbonitrile] |  | 0.16 |
